Experimental data from patent publication US11464749B2, “Bismuth-thiol compositions and methods of use” (Microbion Corporation, priority 2018, dated 2022).
Like-named read-outs stand apart in the source and are kept apart here.

Key:
[1] = test system: Escherichia coli; conditions: E. coli MMX 102 (ATCC 25922); CLSI QC ranges shown in parenthesis; cited from earlier work
[2] = test system: Pseudomonas aeruginosa; conditions: P. aeruginosa MMX 103 (ATCC 27853); CLSI QC ranges shown in parenthesis; cited from earlier work
[3] = test system: Escherichia coli; test: Broth microdilution MIC (Example 11)
[4] = test system: Klebsiella pneumoniae; test: Broth microdilution MIC (Example 11)
[5] = test system: Enterobacter cloacae; test: Broth microdilution MIC (Example 11); conditions: ATCCBAA2468
[6] = test system: Pseudomonas aeruginosa; test: Broth microdilution MIC (Example 11)
[7] = test system: Acinetobacter baumannii; test: Broth microdilution MIC (Example 11)
[8] = test system: Staphylococcus aureus (MRSA); test: Broth microdilution MIC (Example 11)
[9] = test system: E. faecalis; test: Broth microdilution MIC (Example 11); conditions: VRE Lev^R Cip^R Ery^R
[10] = test system: S. pneumoniae; test: Broth microdilution MIC (Example 11); conditions: Streptococcus pneumoniae
[11] = test system: S. pyogenes; test: Broth microdilution MIC (Example 11); conditions: Streptococcus pyogenes
[12] = test system: S. agalactiae; test: Broth microdilution MIC (Example 11); conditions: Streptococcus agalactiae
[13] = test system: vancomycin-intermediate Staphylococcus aureus (VISA); test: Broth microdilution MIC (Example 12); conditions: Staphylococcus aureus, NRS13 / VISA, read-out: MIC values
[14] = test system: Haemophilus influenzae; test: Broth microdilution MIC against Haemophilus influenzae clinical isolates; conditions: Haemophilus influenzae
[15] = test system: M. abscessus complex; test: MIC against CF bacterial strains (Example 5); format: cell-based, Mycobacterium abscessus; conditions: Mycobacteroides abscessus, read-out: MIC
Description: A range of CF-isolated strains of Mycobacterium avium and Mycobacterium abscessus were included; which allows for understanding of the activity against non-tubercular Mycobacteria (NTM). Two distinct bismuth-thiol compounds were evaluated, including BisEDT and BisBDT. […] The CF-isolates of greater clinical relevance, including both M abscessus spp. and Burkholderia spp., were both consistently found to be much more susceptible to BisEDT and BisBDT.

[16] = test system: S. aureus ATCC 29213; conditions: control strain ATCC 29213; per CLSI M100-S24 or provided by Microbion; cited from earlier work
[17] = test system: E. faecium; test: Broth microdilution MIC (Example 11); conditions: VRE vanA Lev^R Cip^R Ery^R
[18] = ATCC25922, E. coli MMX 102 (ATCC 25922), QC
[19] = ATCCBAA2469, E. coli MMX 5980 (ATCC BAA-2469), NDM-1, Lev^R, MEM^R, CAZ^R, Gm^R
[20] = E. coli MMX 8423, ESBL, Lev^R, CAZ^R, Gm^R
[21] = E. coli MMX 8425, ESBL, Lev^R, CAZ^R, Gm^R
[22] = K. pneumoniae MMX 4622, KPC-2, MEM^R, CAZ^R
[23] = K. pneumoniae MMX 4623, KPC-2, MEM^R, CAZ^R, GM^R
[24] = K. pneumoniae MMX 4653, KPC-3, Lev^R, MEM^R, CAZ^R
[25] = K. pneumoniae MMX 4683, KPC-2, Lev^R, MEM^R, CAZ^R
[26] = K. pneumoniae MMX 4684, ESBL, MEM^R
[27] = K. pneumoniae MMX 4685, ESBL, Lev^R, MEM^R, CAZ^R
[28] = K. pneumoniae MMX 4694, KPC-3, Lev^R, MEM^R, CAZ^R
[29] = K. pneumoniae MMX 5979, NDM-1, Lev^R, MEM^R, CAZ^R, Gm^R
[30] = Pseudomonas aeruginosa, ATCC27853, P. aeruginosa MMX 103 (ATCC 27853), QC
[31] = Pseudomonas aeruginosa, P. aeruginosa MMX 1381, MDR, Lev^R, Cip^R, MEM^R, CAZ^R
[32] = Pseudomonas aeruginosa, P. aeruginosa MMX 2562, MDR, Lev^R, Cip^R, MEM^R, CAZ^R
[33] = Pseudomonas aeruginosa, P. aeruginosa MMX 3991, MDR, Lev^R, Cip^R, MEM^R, CAZ^R
[34] = Pseudomonas aeruginosa, P. aeruginosa MMX 4654, IMP-7, Lev^R, Cip^R, MEM^R, CAZ^R
[35] = Pseudomonas aeruginosa, P. aeruginosa MMX 4697, VIM-2, Lev^R, Cip^R, MEM^R, CAZ^R
[36] = Acinetobacter baumannii, A. baumannii MMX 2592, MDR, Lev^R, Cip^R, MEM^R, CAZ^R, Gm^R
[37] = Acinetobacter baumannii, A. baumannii MMX 2593, MDR, Lev^R, Cip^R, MEM^R, CAZ^R, Gm^R
[38] = Acinetobacter baumannii, A. baumannii MMX 3372, MDR, Cip^R, MEM^I, CAZ^I
[39] = Acinetobacter baumannii, A. baumannii MMX 3373, Sensitive
[40] = Acinetobacter baumannii, NCTC13304, A. baumannii MMX 4651 (NCTC 13304), MDR, OXA-27, Lev^R, Cip^R, MEM^R, CAZ^R, Gm^I
[41] = ATCC29213|MRSA|MSSA, S. aureus MMX 101 (ATCC 29213), QC, MSSA
[42] = MRSA, S. aureus MMX 5373, MRSA Lev^R Cip^R CC^R Ery^R Ox^R
[43] = MRSA, S. aureus MMX 6311, MRSA Lev^R Cip^R CC^R Ery^R Ox^R
[44] = MRSA, S. aureus MMX 9203, MRSA Lev^R Cip^R Ery^R Ox^R
[45] = MRSA, S. aureus MMX 9204, MRSA Lev^R Cip^R Ery^R Ox^R
[46] = MRSA, S. aureus MMX 9205, MRSA Lev^R Cip^R CC^R Ery^R Ox^R
[47] = Enterococcus faecalis, VRE, E. faecalis MMX 8960
[48] = Enterococcus faecalis, VRE, E. faecalis MMX 8961
[49] = Enterococcus faecalis, VRE, E. faecalis MMX 8962

CC(C)(O/N=C(\C(=O)N[C@@H]1C(=O)N2C(C(=O)[O-])=C(C[n+]3ccccc3)CS[C@H]12)c1csc(N)n1)C(=O)O [Ceftazidime]
(1-4) μg/mL: CLSI QC range of MIC [2]
> 32 µg/mL: MIC [3, 19] | MIC [4, 22] | MIC [4, 23] | MIC [4, 24] | MIC [4, 25] | MIC [4, 27] | MIC [4, 28] | MIC [4, 29] | MIC [5] | MIC [6, 32] | MIC [6, 34] | MIC [7, 40] | MIC [8, 42] | MIC [8, 43] | MIC [8, 44] | MIC [8, 45] | MIC [8, 46] | MIC [9, 47] | MIC [9, 48] | MIC [9, 49]
2 µg/mL: MIC [6, 30]
16 µg/mL: MIC ([3]; E. coli MMX 8424, ESBL, CAZ^R) | MIC [3, 21] | MIC [6, 33] | MIC [7, 38]
32 µg/mL: MIC [3, 20] | MIC [6, 31] | MIC [6, 35] | MIC [7, 36] | MIC [7, 37]
0.12 µg/mL: MIC [3, 18]
(0.06-0.5) μg/mL: CLSI QC range of MIC [1]
4 µg/mL: MIC [7, 39]
8 µg/mL: MIC [4, 26] | MIC [8, 41]

C[C@H]1COc2c(N3CCN(C)CC3)c(F)cc3c(=O)c(C(=O)O)cn1c23 [Levofloxacin, reference compound]
0.25 µg/mL: MIC ([11]; S. pyogenes MMX 3820, ERY^R CLI^R) | MIC ([11]; S. pyogenes MMX 5091, ERY^R CC^R)
0.03 µg/mL: MIC [4, 26]
0.06 µg/mL: MIC ([3]; E. coli MMX 8424, ESBL, CAZ^R)
1 µg/mL: MIC [4, 22] | MIC [4, 23] | MIC [6, 30] | MIC [7, 38] | MIC ([10]; S. pneumoniae MMX 937, Mem^R SXT^R CC^R Ery^R Pen^R) | MIC ([10]; S. pneumoniae MMX 3959, CC^R Ery^R) | MIC ([10]; S. pneumoniae MMX 5440, Mem^R SXT^R CC^R Ery^R Pen^R) | MIC ([10]; S. pneumoniae MMX 5445, Mem^R SXT^R CC^R Ery^R Pen^R) | MIC ([10]; S. pneumoniae MMX 8133, Mem^R SXT^R CC^R Ery^R Pen^R) | MIC ([12]; S. agalactiae MMX 3743, ERY^R CC^R) | MIC ([12]; S. agalactiae MMX 4079, ERY^R CC^R Pen^R MEM^R)
8 µg/mL: MIC [7, 40] | MIC ([10]; S. pneumoniae MMX 880, Lev^R SXT^R CC^R Ery^R Pen^R)
16 µg/mL: MIC [3, 19] | MIC [3, 20] | MIC [3, 21]
≥ 4 µg/mL: MIC [13]
4 µg/mL: MIC [8, 44] | MIC [8, 45]
(0.5-4) μg/mL: CLSI QC range of MIC [2]
64 µg/mL: MIC [4, 24] | MIC [4, 28] | MIC [5] | MIC [6, 31] | MIC [6, 32] | MIC [6, 33] | MIC [6, 34] | MIC [7, 36] | MIC [9, 48] | MIC [9, 49]
0.12 µg/mL: MIC [7, 39] | MIC [8, 41] | MIC ([11]; S. pyogenes MMX 3919, ERY^R)
0.015 µg/mL: MIC [3, 18] | MIC50 [14] | MIC90 [14]
(0.008-0.06)^1 μg/mL: CLSI QC range of MIC [1]
> 64 µg/mL: MIC [4, 25] | MIC [4, 29] | MIC [8, 46]
32 µg/mL: MIC [4, 27] | MIC [6, 35] | MIC [7, 37] | MIC [8, 42] | MIC [8, 43] | MIC [9, 47]
0.5 µg/mL: MIC ([10]; ATCC49619, S. pneumoniae MMX 6837 (ATCC 49619), QC) | MIC ([11]; S. pyogenes MMX 3068, Ery^R) | MIC ([11]; S. pyogenes MMX 3929, ERY^R CC^R) | MIC ([12]; S. agalactiae MMX 3741, ERY^R CC^R) | MIC ([12]; S. agalactiae MMX 4077, ERY^R CC^R) | MIC ([12]; S. agalactiae MMX 4086, ERY^R CC^R)

CC[C@H]1OC(=O)[C@H](C)[C@@H](O[C@H]2C[C@@](C)(OC)[C@@H](O)[C@H](C)O2)[C@H](C)[C@@H](O[C@@H]2O[C@H](C)C[C@H](N(C)C)[C@H]2O)[C@](C)(OC)C[C@@H](C)C(=O)[C@H](C)[C@@H](O)[C@]1(C)O [Clarithromycin, reference compound]
2 µg/mL: MIC ([15]; AMT153-9, M abscessus/massiliense complex) | MIC ([15]; AMT0493-2, M abscessus/massiliense complex, Amikacin resistant)
> 32 µg/mL: MIC ([15]; ATCC19977, ATCC 19977, M abscessus/massiliense complex, Macrolide resistant (inducible))
1 µg/mL: MIC ([15]; AMT0130-8, M abscessus/massiliense complex)
0.25 (0.12-0.5) mcg/mL: Expected MIC: goal (acceptable range) [16]

Gentamicin
(0.25-1) μg/mL: CLSI QC range of MIC [1]
8 µg/mL: MIC ([6]; P. aeruginosa MMX 1381, MDR, Lev^R, Cip^R, MEM^R, CAZ^R) | MIC ([6]; P. aeruginosa MMX 2562, MDR, Lev^R, Cip^R, MEM^R, CAZ^R) | MIC ([7]; A. baumannii MMX 4651 (NCTC 13304), MDR, OXA-27, Lev^R, Cip^R, MEM^R, CAZ^R, Gm^I) | MIC ([9]; E. faecalis MMX 8961)
0.12 µg/mL: MIC ([7]; A. baumannii MMX 3373, Sensitive)
>64 µg/mL: MIC ([6]; P. aeruginosa MMX 4654, IMP-7, Lev^R, Cip^R, MEM^R, CAZ^R) | MIC ([7]; A. baumannii MMX 2592, MDR, Lev^R, Cip^R, MEM^R, CAZ^R, Gm^R) | MIC ([7]; A. baumannii MMX 2593, MDR, Lev^R, Cip^R, MEM^R, CAZ^R, Gm^R) | MIC ([9]; E. faecalis MMX 8960) | MIC ([9]; E. faecalis MMX 8962) | MIC ([17]; E. faecium MMX 485) | MIC ([17]; E. faecium MMX 752)
4 µg/mL: MIC ([6]; P. aeruginosa MMX 3991, MDR, Lev^R, Cip^R, MEM^R, CAZ^R) | MIC ([6]; P. aeruginosa MMX 4697, VIM-2, Lev^R, Cip^R, MEM^R, CAZ^R)
0.5 µg/mL: MIC ([7]; A. baumannii MMX 3372, MDR, Cip^R, MEM^I, CAZ^I)
1 µg/mL: MIC ([6]; P. aeruginosa MMX 103 (ATCC 27853), QC)
(0.5-2) μg/mL: CLSI QC range of MIC [2]
